The values below are quoted from earlier work in patent publication US20070134341A1, “COMPOSITIONS OF LIPOXYGENASE INHIBITORS” (priority 2005, published 2007).

As to `CC(c1cc2ccccc2s1)N(O)C(N)=O` (racemic) [Zileuton, (±)-1-(1-benzo[b]thien-2-ylethyl)-1-hydroxyurea], for the setting “acetonitrile”, the solubility in acetonitrile entry was “slightly soluble”. Further, the solubility in ethanol entry (ethanol) is “soluble”. Besides, the solubility in hexane entry (hexane) is listed as “practically insoluble”. For the same compound, under “methanol”, the solubility in methanol entry was “soluble”. For the same compound, the solubility in water result (water) was “practically insoluble”. The water solubility (water, 25° C.) was 80 to 140 µg/mL.
